{"source": "patent US20160312240A1", "about": "“MODIFIED PYR/PYL RECEPTORS ACTIVATED BY ORTHOGONAL LIGANDS” (The Regents of the University of California, priority 2010, published 2016)", "key": {"[1]": {"target": "T1, PYR1 K59R,Y120H,M158I triple mutant (Arabidopsis thaliana, UniProt O49686, K59R/M158I/Y120H)", "T1 construct": "6×-His (N); made in house", "T1 sequence (O49686 whole entry K59R/Y120H/M158I)": "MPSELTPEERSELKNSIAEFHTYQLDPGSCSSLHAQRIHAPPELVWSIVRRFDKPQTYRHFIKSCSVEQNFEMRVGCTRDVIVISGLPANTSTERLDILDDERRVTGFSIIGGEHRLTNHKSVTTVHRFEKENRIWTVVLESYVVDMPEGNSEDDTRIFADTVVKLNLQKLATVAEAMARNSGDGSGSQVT", "T1 sequence (Q9CAJ0 23-511, further chain)": "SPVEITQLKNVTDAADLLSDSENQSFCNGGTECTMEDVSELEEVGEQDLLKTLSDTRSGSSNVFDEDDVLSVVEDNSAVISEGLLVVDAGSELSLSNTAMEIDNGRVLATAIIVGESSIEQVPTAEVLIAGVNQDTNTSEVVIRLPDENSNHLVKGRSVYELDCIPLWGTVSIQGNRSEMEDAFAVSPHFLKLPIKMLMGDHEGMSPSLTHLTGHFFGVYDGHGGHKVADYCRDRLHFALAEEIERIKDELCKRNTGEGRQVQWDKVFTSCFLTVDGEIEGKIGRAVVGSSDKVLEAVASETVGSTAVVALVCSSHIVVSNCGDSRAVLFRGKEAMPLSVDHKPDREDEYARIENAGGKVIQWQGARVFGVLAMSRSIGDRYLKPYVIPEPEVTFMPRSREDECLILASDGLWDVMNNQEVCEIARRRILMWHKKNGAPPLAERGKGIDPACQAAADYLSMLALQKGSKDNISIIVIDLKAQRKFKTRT", "assay": "In vitro receptor (PP2C) assay, 2:1 receptor to phosphatase", "assay_type": "biochemical", "method": "FIGS. 2A-2B. […] FIG. 2A. The mutants (listed on left side of panel) were constructed in pBD-PYR1 and transformed into Y190 pAD-HAB1 yeast cells. The transformants were then grown on increasing concentrations of fenhexamid and scored for responsiveness using X-gal staining, performed as described in Park et al., 2009. As shown, the mutations K59R, Y120H, and M1581 are necessary for fenhexamid response by 27C-2. FIG. 2B. In vitro characterization of the PYR1 K59R, Y120H, M158I mutant. Recombinant wild-type and mutant PYR1 proteins were produced as described previously and used in PP2C assays, as described previously (Park et al., 2009), with the exception that a 2:1 ratio of receptor to phosphatase was utilized.\nTo establish the relevance of the residues identified by our screens, we focused on a highly sensitive fenhexamid-responsive mutant identified, 27C-2, which contains 5 mutations (P42S, K59R, R74C, Y120H, and M158I; SEQ ID NO:171; see Table 8) in comparison to the wild-type PYR1 sequence. […] To probe the role of the 5 mutations in fenhexamid response, each of these residues were reverted back to the wild-type residue using site-directed mutagenesis."}, "[2]": {"tested_on": "control lines (Columbia wild-type; wild-type PYL2 overexpression line)", "assay": "Seedling germination/growth on fenhexamid", "assay_type": "in vivo, Arabidopsis", "conditions": "100 μM fenhexamid, germinated in the dark, scored two days post-imbibition, FIG. 4", "description": "(§1) FIG. 4. Characterization of seedling responses to fenhexamid in 35S::GFP-PYL2 K64R, Y124H, M164I, V67I, V114I transgenic plants. […] Shown are segregating GFP-expressing T2 seedlings from primary transgenic plants (T1). Columbia is the wild-type background and is non-transgenic. Two independent PYL2 K64R, Y124H, M164I, V67I, V114I (“PYL2 MUT”) transgenic lines were characterized in addition to a wild-type PYL2 overexpression line. Seeds from respective lines were germinated in the dark on media containing 100 μM fenhexamid and scored two days post-imbibition.\n(§2) To investigate if the fenhexamid response observed in yeast and in vitro experiments would function in plants, transgenic 35S::GFP-PYL2 and 35S::GFP-PYL2^K64R,Y124H,M164I,V67I,V114I plants were constructed using standard molecular cloning methods into a modified version of pEGAD (Cutler et al., Proc Natl Acad Sci U.S.A. 97:3718-3723 (2000)) in which a 6×-histidine tag was added onto the N-terminus of GFP. Transgenic plants were made using the floral-dip method and primary transgenics (T1) identified by screening seedlings by epi-fluorescence using a Leica GFP dissecting microscope. The GFP^+ transgenic plants were grown to maturity and T2 seed collected for further analyses. […]"}, "[3]": {"tested_on": "35S::GFP-PYL2 K64R,Y124H,M164I,V67I,V114I transgenic plants", "assay": "Seedling germination/growth on fenhexamid", "assay_type": "in vivo, Arabidopsis", "conditions": "100 μM fenhexamid; T2 seedlings expressing mutant PYL2; FIG. 4", "description": "as §1, §2"}, "[4]": {"tested_on": "PYL2 K64R,Y124H,M164I,V67I,V114I transgenic plants", "assay": "Water loss from detached aerial rosettes", "assay_type": "in vivo, Arabidopsis", "conditions": "100 μM spray, approximately 16 hours pretreatment, FIG. 6A-C", "method": "FIGS. 6A-6C. Fenhexamid reduces water loss in transgenic PYL2^K64R, Y124H, M164I, V67I, V114I expressing plants. Shown are three independent water loss experiments (FIGS. 6A-C) conducted on transgenic plants treated with control, 100 μM fenhexamid, or 100 μM ABA containing solutions. Plants were treated as described in the Examples section below and water loss from aerial rosettes was measured after detachment.\nTransgenic or control (wild-type) plants were grown under a 16 hr light/8 hr dark cycle for 3 weeks and then treated with either 100 μM (+)-ABA, 100 μM fenhexamid, or control (containing 0.1% Tween-20, 0.1% DMSO). ABA treatments were conducted as a positive control. The plants were sprayed in the evening prior to conducting water loss experiments. The next morning, approximately 16 hours post-treatment, the above-ground rosettes of the experimental samples were collected and transferred to weighing dishes, 8 plants per measured sample, and maintained under ˜90-100 μEinstein/m^2 fluorescent light illumination. Four groups of eight plants were measured per time point at 20 min intervals. The experiments were repeated three times over the course of an eight-week interval. […]"}, "[5]": {"tested_on": "PYR1 variants 27B-1, 27B-2, 27B-3, 27B-4, 27B-7, 27B-8 (Table 7)", "assay": "MAV99 growth selection, second round of shuffling (27B' library)", "assay_type": "cell-based, Arabidopsis", "conditions": "20 μM fenhexamid; media lacking uracil; Table 7 variants", "method": "To improve fenhexamid receptor sensitivity, DNA shuffling was employed using the same general experimental scheme outlined previously. Briefly, equimolar amounts of plasmid DNA for the fenhexamid receptors shown in Table 1 were pooled and combined with an equimolar amount of the ePCR1 library DNA. The pooled templates were utilized for DNA shuffling, which was conducted as described in Example 1. A library (named “27”) of ˜400,000 shuffled variants was prepared. The DNA for this library was introduced into the MAV99 pAD-HAB 1 yeast strain as described above and the resulting yeast cells collected and grown on FOA-containing plates to reduce constitutive mutants in the library, yielding the 27B′ library. The 27B′ library was plated onto media lacking uracil but containing 20 μM fenhexamid. ˜50 positives were selected from these plates and subsequently retested on media lacking […] to distinguish constitutive mutants (i.e., false positives) from those mutants that grow specifically in response to fenhexamid (i.e., true positives). The PYR1 coding sequences for the true positives were sequenced to yield the following series of fenhexamid-responsive PYR1 variants (Table 7): […]"}}, "data": [{"smiles": "CC1(C(=O)Nc2ccc(O)c(Cl)c2Cl)CCCCC1", "note": "[fenhexamid]", "values": [{"measurement": "IC50", "setting": "[1]", "result": "~400", "unit": "nM"}, {"measurement": "Post-germination arrest on fenhexamid", "setting": "[2]", "result": "do not"}, {"measurement": "Seedling growth on fenhexamid", "setting": "[3]", "result": "strong growth inhibition"}, {"measurement": "Water loss from detached rosettes", "setting": "[4]", "result": "sufficient to reduce water loss"}, {"measurement": "Growth in response to fenhexamid (selection)", "setting": "[5]", "result": "fenhexamid-responsive"}]}]}
